Data from patent US20240122939A1, “THERAPIES FOR THE TREATMENT OF DISEASES AND DISORDERS ASSOCIATED WITH ABNORMAL EXPRESSION OF CDKL5 GENE” (THE REGENTS OF THE UNIVERSITY OF CALIFORNIA, priority 2021, published 2024).

Columns and labels:
CDD spheres = assay: Cellular migration after drug treatment (outward radial migration from plated spheres); assay type: cell-based, human; details: 1 μM, spheres treated for 3 weeks, migration evaluated 8 days after plating
Description: Cellular migration. Three-week old spheres were treated for 3 additional weeks with 1 μM of selected compounds. Cellular migration was evaluated 8 days after spheres were plated onto poly-L-ornithine/laminin-coated plates. The outward radial migration was measured using NeuronJ plugin on the Fiji platform. Next, these lead compounds were investigated for their ability to ameliorate CDD cellular phenotype. Following a similar pharmacological strategy, spheres were treated for 3 weeks, and cellular migration was evaluated after plating.

[1] = test system: CDD spheroids (cortical neurons and astrocytes derived from human iPSCs); assay: HT calcium oscillation assay in CDD spheroids (high throughput screening, Scalar Perturbation and Parameter Recovery analysis); assay type: cell-based; details: for SP ranking (Scalar Perturbation): smaller SP = closer to control; for EC50: Homo sapiens, iPSC, six concentrations 0.0003 to 1 μM, nonlinear regression fit, n=4 spheroids per concentration, read-out: EC50 (dose-response of Parameter Recovery percentage)
Description: CDD High Throughput Screening (HTS) platform development. An HTS platform for CDD was developed. Briefly, the HTS system relies on spheroids derived from human iPSCs that comprise a balanced culture of cortical neurons and astrocytes. These spheroids display quantifiable, robust and uniform spontaneous calcium oscillations which correlated with synchronous neuronal activity. The CDD HTS platform uses cells derived from CDD1 and Controll lines.
Chemical library and drug treatment. The compound library used in this study comprises a unique collection of 1112 compounds with biological activity used for neurologic research and associated assays; of which two-thirds are FDA-approved drugs (SelleckChem, Houston, TX, USA). Three-week-old CDD spheroids received chronic treatment three-times per week, during three weeks. All compounds were tested at 1 μM in three technical replicates; vehicle controls (DMSO or water) were included in multiple replicates. The dose-response assay comprehended six concentrations ranging from 0.0003 to 1 μM, in four technical replicates.
HT Calcium oscillation assay. To assess the intracellular calcium oscillations in CDD and control cortical spheroids, cells were incubated with the FLIPR Calcium 6 Kit (Molecular Devices LLC, San Jose, CA, USA). Briefly, cells were pre-loaded with Calcium 6 Dye for 2 h prior to the recording. The dye interacts with intracellular calcium and changes in fluorescence occur according to increased or decreased calcium concentration. The peaks observed correlate with synchronous neural activity in the spheroids. The kinetics of intracellular calcium oscillations was determined using the FLIPR Tetra High-Throughput Cellular Screening System (Molecular Devices LLC): the fluorescence intensity was set at 515-575 nm following excitation at 470-495 nm for 10 min at a frequency of 3 Hz; the exposure time per read was 0.4 s, the gain was set to 30, and the excitation intensity was set to 40%. The instrument temperature was kept at 37° C.
HT screening analysis. A multiparametric analysis of representative descriptors of the intracellular calcium oscillation was performed. The features used include: 1. Peak count; 2. Average (Avg) Peak Height (Amplitude); 3. Peak Height standard deviation (s.d.); 4. Avg Peak Width, 5. Peak Width s.d.; 6. Avg Peak Spacing; 7. Peak Spacing s.d.; 8. Avg Peak Rise Time; 9. Peak Rise Time s.d.; 10. Avg Peak Decay Time; 11. Peak Decay Time s.d.; 12. Class 1 Peak Count; 13. Class 2 Peak Cound; 14. Class 3 Peak Count; 15. Singular Peak Count; 16. Irregular Peak Count, and 17. Subpeak Count. For peak classification, Class 1 Peak display 100-66% of max peak height, while Class 2 and Class 3, 66-33% and 33-15%, respectively. To determine the Scalar Perturbation, the data was normalized by dividing raw parameters by the median values of controls from the same plate. Each parameter was standardized by z-score of normalized and log-transformed control values. Next, the Euclidean norm between selected parameters was calculated and averaged the Scalar Perturbation score among replicates. In the Parameter Recovery, max/min boundaries from vehicle Control were determined from corresponding plate. For each replicate, we summed the number of parameter found to be within the max/min boundaries of the Control. Next, for each replicate we divided the sum of the recovered parameter by the total number of parameters and established the percentage of parameters recovered to the Control boundaries and, averaged Parameter Recovery percentages between compound replicates.
Next, a unique library of 1112 neuronal signaling compounds was screened by chronically treating 3-week-old CDD spheroids in triplicate at 1 μM for 3 weeks (FIG. 5D; FIG. 10). The calcium peaks' baseline features were determined solely in the presence of each vehicle (DMSO or water) to avoid any confounding effect on the oscillatory activity (FIG. 5E and FIG. 10A-D). […]

CDD spheroids = assay: HT cell viability (CellTiter Glo 3D Cell Viability Assay); assay type: cell-based, human; details: 1 μM, 3 weeks treatment, CDD spheroids at 6 weeks of differentiation
Description: HT cell viability. To determine any cytotoxic effect of the drug treatment on the neural culture, the CellTiter Glo 3D Cell Viability Assay (Promega, Madison, WI, USA) was performed according to the manufacturer's instructions. Briefly, following the intracellular calcium oscillation recording, the spheroids were extensively washed with PBS for removal of the calcium dye. Next, cells were incubated with CellTiter Glo Reagent for 30 min at room temperature and the number of viable cells was estimated based on the amount of ATP present in the culture. The luminescent signal was captured using a PHERAstar FSX Microplate Reader (BMG Labtech, Ortenberg, Germany).
Next, a unique library of 1112 neuronal signaling compounds was screened by chronically treating 3-week-old CDD spheroids in triplicate at 1 μM for 3 weeks (FIG. 5D; FIG. 10). The calcium peaks' baseline features were determined solely in the presence of each vehicle (DMSO or water) to avoid any confounding effect on the oscillatory activity (FIG. 5E and FIG. 10A-D). Similarly, the result from each compound was normalized against its vehicle control (DMSO or water). To detect potential toxic effects of specific drugs, spheroid size and cell viability were monitored (FIG. 5F-G).

[2] = test system: Cdkl5 knockout mouse neurons; details: cited from earlier work
[3] = 1112 compounds screened at 1 μM, chronic treatment for 3 weeks, 3-week-old CDD spheroids

EC50 [1]	Structure (SMILES)	rescue of outward radial cellular migration defects in CDD (CDD spheres)	SP ranking (Scalar Perturbation) [1, 3]	effect on cell viability (CDD spheroids)	restoration of CDKL5-dependent synaptic defects [2]	PR ranking (Parameter Recovery) ([1]; 1112 compounds screened at 1 μM, chronic treatment for 3 weeks, 3-week-old CDD spheroids, higher PR = closer to control)
41 nM	COc1cc2c(cc1OC)CC(=O)N(CCCN(C)C[C@H]1Cc3cc(OC)c(OC)cc31)CC2 [Ivabradine]	able to rescue outward radial cellular migration defects	10	no effect on cell viability	–	–
–	O=C(O[C@H]1CN2CCC1CC2)N1CCc2ccccc2[C@@H]1c1ccccc1 [Solifenacin]	able to rescue outward radial cellular migration defects	28	no effect on cell viability	–	–
–	N#Cc1ccc2[nH]c(O)c(-c3ccc(CN4CCOCC4)cn3)c2c1 [AZD1080]	able to rescue outward radial cellular migration defects	12	no effect on cell viability	–	–
–	COc1ccc2c(c1)[nH]c1c(C)nccc12 [Harmine]	–	first	excluded from the list of top candidates due to its effect on cell survival	restore CDKL5-dependent synaptic defects	second
883 nM	C[C@H](NC(=O)CCC(F)(F)F)C(=O)N[C@@H]1C(=O)N(CCO)c2ncccc2-c2ccccc21 [Crenigacestat]	able to rescue outward radial cellular migration defects	5	no effect on cell viability	–	–
